Measured values published in patent US20250099496A1, “Dihydronicotinamide Riboside (NRH) Therapy for Osteoarthritis and other Conditions” (The Regents of the University of California, priority 2022, published 2025).

Experiments:
[1] = metabolized by PNP; cited from earlier work
human OA chondrocytes [2] = test: IL-1β-induced nitric oxide (NO) generation in human OA chondrocytes; assay type: cell-based; settings: for concentration at which significant inhibition of IL-1β-induced NO release was observed when used alone: chondrocytes, previously demonstrated
Procedure: The effectiveness of NR on inhibition of IL-1β-induced nitric oxide (NO) generation in human chondrocytes was influenced by the presence or absence of serum (which contains PNP) in the cell culture media. Human OA chondrocytes (donor OA278) were treated with a PNP inhibitor Ulodesine (5 uM) for 2 h and then NR (10 or 100 uM) for 1 h, followed by IL1β (2 ng/ml) for 24 h under serum (10% FCS)-present (FIG. 6A) or serum-free condition (FIG. 6B). The conditioned media was used for measuring generation of nitric oxide (NO), a known contributor of cartilage degradation.
Effectiveness of combination of low-dose of NAD precursors (NR or NRH) with a PNP inhibitor Ulodesine on inhibition of IL-1β-induced nitric oxide (NO) generation in human chondrocytes under the serum-presence condition. Human OA chondrocytes from donor OA277 (FIG. 7A) or OA279 (FIG. 7B) were treated with Ulodesine (5 uM) for 2 h and then NR or NRH at 10 uM for 1 h, followed by IL1p (2 ng/ml) for 24 h under serum-present (10% FCS) condition. The conditioned media was used for measuring NO generation.

[3] = system: MSU crystal-induced inflammation; test: MSU crystal-induced inflammation in the gout-like air pouch model in mice; assay type: in vivo; settings: via gavage, 400 mg/kg/day
Procedure: It was observed that blood NAD levels decrease, correlated with increase in CD38 expression in peripheral blood mononuclear cells in gout patients compared to healthy subjects. […] The effect of oral supplementation of NR or NRH (via gavage, 400 mg/kg/day) on MSU crystal-induced inflammation in the gout-like air pouch model in mice was tested (FIG. 8). The development of the air pouch leads to a pouch lining tissue that is morphologically like the synovium in joints, in which injection of sterile-filtered air under the skin on the back of the test animal provides an environment that is used to simulate the effects of diseases such as gout. […] Given the potential of Ulodesine in lowering uric acid and of NR or NRH in limiting MSU crystal-induced inflammation, combination of NR or NRH with Ulodesine, or other PNP inhibitors, presents a novel therapeutic approach for gout.

[4] = cited from earlier work
CD38 = test: IL-1β-induced CD38 expression in chondrocytes; assay type: cell-based, human; settings: mRNA and protein levels
Text: (§1) In this study, it was observed that CD38 expression is increased in human knee cartilage of both osteoarthritis (OA) and aged donors (FIGS. 1A and 1B), in primary human knee OA chondrocytes (FIG. 1C) and in chondrocytes stimulated with IL-1, a pro-inflammatory cytokine implicated to play an important role in OA pathogenesis (FIG. 1E). […] In addition, NRH prevented IL-1β-induced CD38 expression at both mRNA and protein levels (FIGS. 2D and 2E) and decline of NAD levels and NAD/NADH ratio (FIGS. 2F and 2G). […] It was observed that NRH has higher potency than NR to inhibit IL-1β-induced catabolic responses in chondrocytes, evidenced by that similar efficacy was achieved by NRH used at concentration 10 times less than NR (data not shown).

[5] = cited from earlier work; remark: listed apart in the source
[6] = system: cartilage matrix degradation; test: IL-1β-induced release of matrix protein glycosaminoglycan (GAG); assay type: cell-based
Text: as §1

human OA chondrocytes [7] = test: Cellular NAD, NADH and NAD/NADH ratio in human OA chondrocytes; assay type: cell-based
Text: as §1

post-traumatic OA model = test: Post-traumatic OA model (DMM surgery) in mice, oral NRH; assay type: in vivo
Procedure: Given that NRH is a natural NAD precursor with oral bioavailability and its ability to not only promote NAD^+ biosynthesis, but also prohibit NAD^+ degradation by inhibiting CD38, it was next tested whether oral administration of NRH limits OA development in mice using a post-traumatic OA model. Destabilization of medial meniscus (DMM) surgery was performed on the right knee of mice to cause joint injury and started NRH treatment through gavage 2 week after the surgery. Pain behaviors such as pain sensitivity and spontaneous pain were evaluated by Von Frey and static weight bearing tests, respectively, at baseline and every 2 weeks after the surgery. At 10 weeks after the surgery, mice were sacrificed, and knee OA pathological changes including cartilage degradation, synovial inflammation and osteophyte formation were assessed.

MMP13 = test: IL-1β-induced MMP13 expression at cellular and tissue levels; assay type: cell-based, human; settings: cellular (mRNA and protein) levels and tissue levels
Text: as §1

chondrocytes = test: IL-1β-induced catabolic responses in chondrocytes, NRH versus NR; assay type: cell-based; settings: inhibition of IL-1β-induced catabolic responses; data not shown
Text: as §1

MMP3 = test: IL-1β-induced MMP3 expression at cellular and tissue levels; assay type: cell-based, human; settings: cellular (mRNA and protein) levels and tissue levels
Text: as §1

PNP = PNP (Homo sapiens, UniProt P00491); settings: cited from earlier work
gout patients = settings: each arm: 40, 80 and 120 mg per day; 60 gout patients with baseline SU ≥8 mg/dL; cited from earlier work
[8] = 10 uM alone, serum-present (10% FCS), donors OA277, OA279
[9] = human OA chondrocytes stimulated with NRH
[10] = NRH by gavage from 2 weeks after DMM surgery, assessed at 10 weeks
[11] = at 6, 8 and 10 weeks after the surgery

Sequence of PNP (P00491 whole entry): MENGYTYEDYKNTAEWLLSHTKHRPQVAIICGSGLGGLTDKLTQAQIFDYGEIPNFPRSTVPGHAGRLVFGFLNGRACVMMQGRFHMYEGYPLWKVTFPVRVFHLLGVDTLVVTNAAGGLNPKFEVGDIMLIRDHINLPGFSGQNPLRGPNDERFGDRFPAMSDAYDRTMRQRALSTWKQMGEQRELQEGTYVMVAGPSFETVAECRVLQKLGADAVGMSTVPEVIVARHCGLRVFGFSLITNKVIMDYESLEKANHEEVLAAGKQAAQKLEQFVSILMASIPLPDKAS

NC(=O)c1ccc[n+]([C@@H]2O[C@H](CO)[C@@H](O)[C@H]2O)c1 [NR, nicotinamide riboside]
stability in plasma (degradation to NAM) [1]: rapidly degraded | effect on IL-1β-induced NO release (human OA chondrocytes [2]; [8]): little effect | effect on IL-1β-induced NO release (human OA chondrocytes [2]; NR 10 and 100 uM, serum-free, donor OA278): robust inhibition | effect on IL-1β-induced NO release (human OA chondrocytes [2]; NR 10 and 100 uM, serum-present (10% FCS), donor OA278): little effect | concentration at which significant inhibition of IL-1β-induced NO release was observed when used alone (human OA chondrocytes [2]): 200 µM | MSU crystal-induced infiltrating inflammatory cells [3]: significantly inhibited | tolerability and safety ([4]; chronic oral supplementation, human): well-tolerated, safe | human NAD+ metabolism ([4]; chronic oral supplementation): boosted | blood pressure and exercise performance ([4]; dietary supplementation, elderly individuals): only mild benefits | glucose tolerance and β-cell secretory capacity ([4]; nondiabetic men with obesity): no significant impact | skeletal muscle mitochondria ([4]; obese and insulin-resistant men): no significant impact

NC(=O)C1=CN([C@@H]2O[C@H](CO)[C@@H](O)[C@H]2O)C=CC1 [NRH, dihydronicotinamide riboside]
effect on IL-1β-induced NO release (human OA chondrocytes [2]; [8]): little effect | concentration at which significant inhibition of IL-1β-induced NO release was observed when used alone (human OA chondrocytes [2]): 200 µM | IL-1β-induced CD38 expression (CD38): prevented | NRH in circulation after NRH treatment ([5]; mice): detectable | NR in circulation after NRH treatment versus after NR administration ([5]; mouse, in vivo): much higher levels | stability compared to NR ([5]; mouse, in vivo): more stable | IL-1β-induced release of glycosaminoglycan (GAG) [6]: significantly inhibited | MSU crystal-induced infiltrating inflammatory cells [3]: significantly inhibited | IL-1β-induced decline of NAD levels (human OA chondrocytes [7]; IL-1β stimulation): prevented | IL-1β-induced decline of NAD/NADH ratio (human OA chondrocytes [7]; IL-1β stimulation): prevented | NAD/NADH ratio (human OA chondrocytes [7]; [9]): dramatically increased | cellular levels of NAD (human OA chondrocytes [7]; [9]): dramatically increased | cellular levels of NADH (human OA chondrocytes [7]; [9]): dramatically increased | cartilage damage (post-traumatic OA model; [10]): significantly reduced | osteophyte size and maturity (post-traumatic OA model; [10]): significantly reduced | synovial inflammation (post-traumatic OA model; [10]): significantly reduced | paw withdraw threshold (Von Frey) (post-traumatic OA model; [11]): significantly increased | weight bearing capacity (post-traumatic OA model; [11]): significantly increased | IL-1β-induced expression of MMP13 (MMP13): completely attenuated | concentration of NRH relative to NR giving similar efficacy (chondrocytes): 10 times less | IL-1β-induced expression of MMP3 (MMP3): completely attenuated

O=c1[nH]cnc2c(CN3C[C@H](CO)[C@@H](O)C3)c[nH]c12 [Ulodesine]
IC50 for PNP (PNP): in the nM concentration range | participants achieving the target SU of less than 6 mg/dL (gout patients): approximately one third
